Usually IC50 stands for the concentration that gives 50% inhibition. Lower therefore signals greater potency in that assay.

In one assay the target is Acetylcholinesterase (Electrophorus electricus, UniProt O42275). Put plainly: AChE and BChE Inhibitory Activities.
Assay [1] addresses Carboxylic ester hydrolase (Equus caballus, UniProt Q9N1N9). Put plainly: AChE and BChE Inhibitory Activities.

Chain of Acetylcholinesterase (O42275 whole entry): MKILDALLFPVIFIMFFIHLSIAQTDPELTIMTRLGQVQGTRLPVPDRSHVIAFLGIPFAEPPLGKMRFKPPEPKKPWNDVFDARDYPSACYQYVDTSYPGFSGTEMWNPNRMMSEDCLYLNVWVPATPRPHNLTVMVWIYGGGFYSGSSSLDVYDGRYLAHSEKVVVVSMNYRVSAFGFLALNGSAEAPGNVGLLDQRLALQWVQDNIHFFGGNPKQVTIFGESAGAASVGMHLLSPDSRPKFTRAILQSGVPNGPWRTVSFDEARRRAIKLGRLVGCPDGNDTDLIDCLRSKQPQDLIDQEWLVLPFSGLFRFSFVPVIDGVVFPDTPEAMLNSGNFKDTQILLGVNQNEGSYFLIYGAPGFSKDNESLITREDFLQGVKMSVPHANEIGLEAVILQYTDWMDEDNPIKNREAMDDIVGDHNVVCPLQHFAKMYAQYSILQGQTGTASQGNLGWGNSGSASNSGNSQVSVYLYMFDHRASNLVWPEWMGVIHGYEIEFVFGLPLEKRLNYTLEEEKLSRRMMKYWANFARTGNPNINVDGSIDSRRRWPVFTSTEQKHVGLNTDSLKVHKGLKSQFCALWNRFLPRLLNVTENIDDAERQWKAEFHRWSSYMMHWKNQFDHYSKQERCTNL
Chain of Carboxylic ester hydrolase (Q9N1N9 whole entry): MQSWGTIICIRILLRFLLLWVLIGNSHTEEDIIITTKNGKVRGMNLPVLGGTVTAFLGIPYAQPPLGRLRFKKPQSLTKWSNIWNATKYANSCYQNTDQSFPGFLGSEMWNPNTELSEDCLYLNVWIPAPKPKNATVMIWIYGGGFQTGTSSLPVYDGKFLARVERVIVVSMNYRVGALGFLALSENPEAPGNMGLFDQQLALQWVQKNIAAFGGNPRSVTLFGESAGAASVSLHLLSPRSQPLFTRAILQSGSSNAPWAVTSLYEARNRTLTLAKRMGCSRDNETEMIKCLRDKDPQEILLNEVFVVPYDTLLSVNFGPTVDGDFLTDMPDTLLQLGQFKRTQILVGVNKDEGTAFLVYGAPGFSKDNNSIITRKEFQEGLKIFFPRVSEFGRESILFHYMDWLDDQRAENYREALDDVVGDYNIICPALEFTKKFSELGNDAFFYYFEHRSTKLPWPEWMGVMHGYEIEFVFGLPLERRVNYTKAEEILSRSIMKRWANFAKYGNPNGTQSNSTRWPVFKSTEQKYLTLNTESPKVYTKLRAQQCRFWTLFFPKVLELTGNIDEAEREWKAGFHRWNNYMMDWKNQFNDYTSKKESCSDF

Consider `O=C(NC(=S)Nc1ccccc1Cl)c1cc2ccccc2oc1=O` [1-(2-Oxo-2H-chromene-3-carbonyl)-3-(2-chlorophenyl)thiourea (2g)], for which the IC50 against Acetylcholinesterase was determined as 7.28 µM; in assay [1], 11.1 µM.
For `O=C(NC(=S)Nc1ccccc1[N+](=O)[O-])c1cc2ccccc2oc1=O` [1-(2-Oxo-2H-chromene-3-carbonyl)-3-(2-nitrophenyl)thiourea (2j)] the same measures were 0.23 µM and 26.1 µM.
As to `O=C(NC(=S)Nc1ccc(Cl)cc1)c1cc2ccccc2oc1=O` [1-(2-Oxo-2H-chromene-3-carbonyl)-3-(4-chlorophenyl)thiourea (2i)], the IC50 was found to be 5.1 µM on Acetylcholinesterase and 42.2 µM in assay [1].
As for `O=C(NC(=S)Nc1cccc(Cl)c1)c1cc2ccccc2oc1=O` [1-(2-Oxo-2H-chromene-3-carbonyl)-3-(3-chlorophenyl)thiourea (2e)], the results for the IC50 (at Acetylcholinesterase; in assay [1]) were 0.04 µM and 1.25 µM, respectively.
In the case of `COc1ccccc1NC(=S)NC(=O)c1cc2ccccc2oc1=O` [1-(2-Oxo-2H-chromene-3-carbonyl)-3-(2-methoxyphenyl)thiourea (2b)], the results for the half-inhibitory concentration (IC50) (on Acetylcholinesterase; in assay [1]) were 13.3 µM and 0.06 µM, respectively.
On to `COc1cccc(NC(=S)NC(=O)c2cc3ccccc3oc2=O)c1` [1-(2-Oxo-2H-chromene-3-carbonyl)-3-(3-methoxyphenyl)thiourea (2k)], for which the IC50 is 8.43 µM against Acetylcholinesterase and 53.2 µM in assay [1].
Regarding `Cc1cccc(NC(=S)NC(=O)c2cc3ccccc3oc2=O)c1` [1-(2-Oxo-2H-chromene-3-carbonyl)-3-(3-methylphenyl)thiourea (2a)], the IC50 worked out at 0.86 µM against Acetylcholinesterase and 2.15 µM in assay [1].
With `O=C(NC(=S)Nc1ccc(F)c(Cl)c1)c1cc2ccccc2oc1=O` [1-(2-Oxo-2H-chromene-3-carbonyl)-3-(3-chloro-4-fluorophenyl)thiourea (2f)], the IC50 at Acetylcholinesterase worked out at 0.75 µM; in assay [1] it was 0.84 µM.
As for `O=C(NC(=S)Nc1cccc(F)c1)c1cc2ccccc2oc1=O` [1-(2-Oxo-2H-chromene-3-carbonyl)-3-(3-fluorophenyl)thiourea (2c)], the results for the IC50 (on Acetylcholinesterase; in assay [1]) were 17.2 µM and 16.2 µM, respectively.
On to `O=C(NC(=S)Nc1cccc(Cl)c1Cl)c1cc2ccccc2oc1=O` [1-(2-Oxo-2H-chromene-3-carbonyl)-3-(2,3-dichlorophenyl)thiourea (2d)], for which the concentration for half-maximal inhibition (IC50) on Acetylcholinesterase amounted to 1.13 µM; in assay [1], 31.6 µM.
For `O=C(NC(=S)Nc1ccc(Cl)cc1Cl)c1cc2ccccc2oc1=O` [1-(2-Oxo-2H-chromene-3-carbonyl)-3-(2,4-dichlorophenyl)thiourea (2h)] the same measures were 6.21 µM and 13.2 µM.
As to `O=C(NC(=S)NC1CCCCC1)c1cc2ccccc2oc1=O` [1-(2-Oxo-2H-chromene-3-carbonyl)-3-(cyclohexyl)thiourea (2l)], the IC50 came to 6.97 µM on Acetylcholinesterase and 12.2 µM in assay [1].

The values above are taken from BindingDB's records for doi:10.1016/j.bioorg.2015.09.009 (Quaid-I-Azam University, 2015).
